Data taken from patent US20090203707A1, “METHODS FOR TREATING PAIN” (priority 2008, published 2009).

Target: SCN9A (Nav1.7) Na+ channel, α- and β1 subunits, in HEK293 cells (Homo sapiens, UniProt Q15858)
Experiment: Whole-cell patch clamp, Nav1.7 peak INa in HEK293 cells (Example 1)
Conditions: 0.1 Hz; for Mean amplitude of Nav1.7 peak INa, fraction of control: −100 mV to 0 mV, 50 msec; for p of logistic fit (Hill coefficient nH) for block of Nav1.7 peak INa / x0 of logistic fit (IC50) for block of Nav1.7 peak INa: holding −100 mV to 0 mV

Chain of SCN9A (Nav1.7) Na+ channel, α- and β1 subunits, in HEK293 cells (Q15858 whole entry): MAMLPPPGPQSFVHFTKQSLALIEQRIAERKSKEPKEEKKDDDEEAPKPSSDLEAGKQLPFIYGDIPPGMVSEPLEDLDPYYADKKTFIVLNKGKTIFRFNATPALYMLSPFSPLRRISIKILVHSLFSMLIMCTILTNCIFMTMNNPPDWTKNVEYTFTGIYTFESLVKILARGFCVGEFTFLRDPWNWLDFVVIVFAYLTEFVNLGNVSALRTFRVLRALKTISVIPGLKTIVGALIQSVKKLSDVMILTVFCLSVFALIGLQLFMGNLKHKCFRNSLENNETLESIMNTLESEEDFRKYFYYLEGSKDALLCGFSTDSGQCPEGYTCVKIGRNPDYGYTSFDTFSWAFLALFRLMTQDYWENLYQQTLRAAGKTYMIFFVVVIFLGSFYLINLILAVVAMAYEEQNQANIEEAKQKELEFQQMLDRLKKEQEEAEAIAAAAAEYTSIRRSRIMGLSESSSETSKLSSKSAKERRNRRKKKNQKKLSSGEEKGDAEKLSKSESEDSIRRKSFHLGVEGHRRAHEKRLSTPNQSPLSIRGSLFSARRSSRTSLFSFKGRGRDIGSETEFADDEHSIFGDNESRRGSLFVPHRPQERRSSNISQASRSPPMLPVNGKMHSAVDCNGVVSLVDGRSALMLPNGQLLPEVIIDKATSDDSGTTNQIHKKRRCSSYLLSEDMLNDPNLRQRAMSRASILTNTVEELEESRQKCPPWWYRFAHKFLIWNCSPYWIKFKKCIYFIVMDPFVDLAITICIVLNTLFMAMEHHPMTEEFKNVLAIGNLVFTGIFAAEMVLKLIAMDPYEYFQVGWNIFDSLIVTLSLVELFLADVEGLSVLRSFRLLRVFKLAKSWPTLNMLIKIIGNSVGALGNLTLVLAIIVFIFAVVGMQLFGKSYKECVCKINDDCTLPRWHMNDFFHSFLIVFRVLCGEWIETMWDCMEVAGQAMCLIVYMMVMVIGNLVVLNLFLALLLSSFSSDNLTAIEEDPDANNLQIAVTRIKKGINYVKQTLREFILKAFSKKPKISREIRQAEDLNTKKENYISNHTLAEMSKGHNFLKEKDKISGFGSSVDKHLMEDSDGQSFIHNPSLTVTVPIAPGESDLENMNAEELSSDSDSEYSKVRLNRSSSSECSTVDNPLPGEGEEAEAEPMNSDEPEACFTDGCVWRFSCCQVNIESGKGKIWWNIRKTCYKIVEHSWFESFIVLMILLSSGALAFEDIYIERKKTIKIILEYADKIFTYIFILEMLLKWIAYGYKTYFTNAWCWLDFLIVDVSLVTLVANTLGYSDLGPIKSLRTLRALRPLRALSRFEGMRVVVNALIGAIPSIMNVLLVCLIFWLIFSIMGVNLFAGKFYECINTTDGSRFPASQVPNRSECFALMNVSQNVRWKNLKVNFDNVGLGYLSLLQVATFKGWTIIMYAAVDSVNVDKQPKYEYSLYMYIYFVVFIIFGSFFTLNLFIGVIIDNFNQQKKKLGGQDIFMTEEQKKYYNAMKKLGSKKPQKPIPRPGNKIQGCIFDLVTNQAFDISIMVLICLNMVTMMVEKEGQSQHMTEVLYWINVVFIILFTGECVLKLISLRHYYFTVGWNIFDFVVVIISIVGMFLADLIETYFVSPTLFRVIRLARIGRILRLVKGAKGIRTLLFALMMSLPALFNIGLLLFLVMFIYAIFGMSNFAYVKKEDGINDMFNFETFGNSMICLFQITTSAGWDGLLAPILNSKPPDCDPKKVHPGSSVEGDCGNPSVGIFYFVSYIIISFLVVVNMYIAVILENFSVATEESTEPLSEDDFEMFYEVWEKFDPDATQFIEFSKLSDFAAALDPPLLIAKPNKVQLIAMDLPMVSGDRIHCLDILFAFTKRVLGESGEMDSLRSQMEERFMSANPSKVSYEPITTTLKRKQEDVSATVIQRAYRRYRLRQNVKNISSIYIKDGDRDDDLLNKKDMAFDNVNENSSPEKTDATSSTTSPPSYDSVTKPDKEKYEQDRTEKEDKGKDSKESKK
Chain of SCN9A (Nav1.7) Na+ channel, α- and β1 subunits, in HEK293 cells (Q07699 19-218 partner): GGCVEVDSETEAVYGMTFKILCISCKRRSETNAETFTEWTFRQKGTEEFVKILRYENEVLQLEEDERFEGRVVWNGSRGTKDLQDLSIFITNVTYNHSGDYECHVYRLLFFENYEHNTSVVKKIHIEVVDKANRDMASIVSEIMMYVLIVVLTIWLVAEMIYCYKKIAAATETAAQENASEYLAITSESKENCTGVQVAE

Mean amplitude of Nav1.7 peak INa, fraction of control (1 μM)	Mean amplitude of Nav1.7 peak INa, fraction of control (3 μM)	Mean amplitude of Nav1.7 peak INa, fraction of control (10 μM)	Mean amplitude of Nav1.7 peak INa, fraction of control (30 μM)	Mean amplitude of Nav1.7 peak INa, fraction of control (100 μM)	p of logistic fit (Hill coefficient nH) for block of Nav1.7 peak INa	x0 of logistic fit (IC50) for block of Nav1.7 peak INa	SMILES
0.9252	0.8286	0.6336	0.2387	0.07855	1.212	11.33 μM	COc1ccccc1OC[C@H](O)CN1CCN(CC(=O)Nc2c(C)cccc2C)CC1 [R-Ranolazine, (R)-(+)-N-(2,6-dimethylphenyl)-4-[2-hydroxy-3-(2-methoxyphenoxy)-propyl]-1-piperazineacetamide]
0.8788	0.7285	0.5358	0.2883	0.06853	0.9409	9.433 μM	COc1ccccc1OC[C@@H](O)CN1CCN(CC(=O)Nc2c(C)cccc2C)CC1 [S-Ranolazine, (S)-(−)-N-(2,6-dimethylphenyl)-4-[2-hydroxy-3-(2-methoxyphenoxy)-propyl]-1-piperazineacetamide]
